# Experimental data reported in ChEMBL document CHEMBL1144390, “Equipotent activity in both enantiomers of a series of ketopiperazine-based renin inhibitors” (Bioorg Med Chem Lett, 2005).
# Target: T1, Renin (Homo sapiens, UniProt P00797)
# T1 sequence (P00797 whole entry): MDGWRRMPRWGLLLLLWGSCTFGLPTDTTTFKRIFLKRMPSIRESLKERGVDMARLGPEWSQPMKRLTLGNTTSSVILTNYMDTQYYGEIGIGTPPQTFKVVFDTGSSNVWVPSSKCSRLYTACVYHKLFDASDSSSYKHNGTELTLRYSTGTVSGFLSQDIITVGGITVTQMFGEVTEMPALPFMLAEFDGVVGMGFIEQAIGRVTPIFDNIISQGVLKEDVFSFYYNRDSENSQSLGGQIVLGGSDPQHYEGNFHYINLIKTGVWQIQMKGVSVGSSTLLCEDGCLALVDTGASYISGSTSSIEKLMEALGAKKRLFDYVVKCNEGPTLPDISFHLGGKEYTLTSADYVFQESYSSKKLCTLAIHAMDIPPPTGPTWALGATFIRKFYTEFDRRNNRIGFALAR
# Assay: Concentration required to inhibit renin activity by 50%
row,SMILES,IC50 [µM]
1,COc1ccccc1COCCCOc1ccc(N2C(=O)CNC[C@H]2COc2ccc3cccnc3c2)cc1,0.86
2,COc1ccccc1COCCCOc1ccc(N2C(=O)CNC[C@@H]2COc2ccc3c(c2)NCCC3)cc1,0.12
3,COc1ccccc1COCCCOc1ccc(N2C(=O)CNC[C@H]2COc2ccc3c(c2)N(CCCO)CCC3)cc1,0.035

# Stronger by IC50, values ahead:
row,IC50 [µM],SMILES
1,0.033,COc1ccccc1COCCCOc1ccc(N2C(=O)CNC[C@H]2COc2ccc3c(c2)N(CCO)CCC3)cc1
2,0.023,COc1ccccc1COCCCOc1ccc(N2C(=O)CNC[C@H]2COc2ccc3c(c2)NCCC3)cc1
3,0.017,COCCCN1C(=O)CCc2ccc(OC[C@@H]3CNCC(=O)N3c3ccc(OCCCOCc4ccccc4OC)cc3)cc21
4,0.007,COCCCN1C(=O)CCc2ccc(OC[C@H]3CNCC(=O)N3c3ccc(OCCCOCc4ccccc4OC)cc3)cc21
